In patent publication US9549556B2, “Macrocyclic picolinamides as fungicides” (DOW AGROSCIENCES LLC, priority 2013, dated 2017):
Like-named read-outs stand apart in the source and are kept apart here.

Columns and labels:
[1] = system: Puccinia triticina; test: Wheat brown rust (PUCCRT) disease control on wheat seedlings; type: in vivo; conditions: read-out: PUCCRT disease control rating (% Control); for pest or weed control at 100 ppm: high volume application; for pest or weed control at 121.5 g/ha: 121.5 g/H, low volume (track spray) application
[2] = system: Septoria tritici; test: Leaf blotch of wheat (SEPTTR) disease control on wheat seedlings; type: in vivo, Mycosphaerella graminicola (anamorph Septoria tritici); conditions: Zymoseptoria tritici, read-out: SEPTTR disease control rating (% Control); for pest or weed control at 100 ppm: high volume application; for pest or weed control at 121.5 g/ha: 121.5 g/H, low volume (track spray) application
Method: Evaluation of Fungicidal Activity: Leaf Blotch of Wheat (Mycosphaerella graminicola; Anamorph: Septoria tritici; Bayer Code […]) Technical grades of materials were dissolved in acetone, which were then mixed with nine volumes of water containing 110 ppm Triton X-100. The fungicide solutions were applied onto wheat seedlings using an automated booth sprayer to run-off. All sprayed plants were allowed to air dry prior to further handling. All fungicides were evaluated using the aforementioned method for their activity vs. all target diseases. Wheat leaf blotch and brown rust activity were also evaluated using track spray applications, in which case the fungicides were formulated as EC formulations, containing 0.1% Trycol 5941 in the spray solutions. Wheat plants (variety Yuma) were grown from seed in a greenhouse in 50% mineral soil/50% soil-less Metro mix until the first leaf was fully emerged, with 7-10 seedlings per pot. These plants were inoculated with an aqueous spore suspension of Septoria tritici either prior to or after fungicide treatments. After inoculation the plants were kept in 100% relative humidity (one day in a dark dew chamber followed by two to three days in a lighted dew chamber at 20° C.) to permit spores to germinate and infect the leaf. The plants were then transferred to a greenhouse set at 20° C. for disease to develop. When disease symptoms were fully expressed on the 1st leaves of untreated plants, infection levels were assessed on a scale of 0 to 100 percent disease severity. Percent disease control was calculated using the ratio of disease severity on treated plants relative to untreated plants.

Row | SMILES | pest or weed control at 100 ppm ([1]; 24 h, 1DP (1 Day Protectant)) [%] | pest or weed control at 100 ppm ([1]; 72 h, 3DC (3 Day Curative)) [%] | pest or weed control at 100 ppm ([2]; 24 h, 1DP (1 Day Protectant)) [%] | pest or weed control at 100 ppm ([2]; 72 h, 3DC (3 Day Curative)) [%] | pest or weed control at 121.5 g/ha ([1]; 24 h, 1DP (1 Day Protectant)) [%] | pest or weed control at 121.5 g/ha ([1]; 72 h, 3DC (3 Day Curative)) [%] | pest or weed control at 121.5 g/ha ([2]; 24 h, 1DP (1 Day Protectant)) [%] | pest or weed control at 121.5 g/ha ([2]; 72 h, 3DC (3 Day Curative)) [%]
1 | CCCC[C@H]1[C@H](C)OC(=O)[C@@H](NC(=O)c2nccc(OC)c2O)COC[C@@H]1OCC1CC1 [Compound 3] | > 70 | > 70 | > 70 | < 70 | – | – | – | –
2 | CCCO[C@H]1COC[C@H](NC(=O)c2nccc(OC)c2OCOC(=O)COCC)C(=O)O[C@@H](C)[C@@H]1Cc1ccc(F)cc1 [Compound 8] | – | – | – | – | > 70 | > 70 | > 70 | > 70
3 | COc1ccnc(C(=O)N[C@H]2COC[C@H](Oc3ccc(C)cc3)[C@@H](Cc3ccc(F)cc3)[C@H](C)OC2=O)c1OC(C)=O [Compound 10] | – | – | – | – | > 70 | < 70 | > 70 | > 70
4 | COc1ccnc(C(=O)N[C@H]2COC[C@H](OCc3ccccc3)[C@@H](CCC(C)C)[C@H](C)OC2=O)c1OCOC(C)=O [Compound 14] | – | – | – | – | > 70 | > 70 | > 70 | > 70
5 | CCCO[C@H]1COC[C@H](NC(=O)c2nccc(OC)c2O)C(=O)O[C@@H](C)[C@@H]1Cc1ccc(F)cc1 [Compound 17] | > 70 | > 70 | > 70 | > 70 | – | – | – | –
6 | CCCO[C@H]1COC[C@H](NC(=O)c2nccc(OC)c2OCOC(C)=O)C(=O)O[C@@H](C)[C@@H]1CCC(C)C [Compound 18, ((2-(((3S,7R,8S,9S)-8-isopentyl-9-methyl-2-oxo-7-propoxy-1,5-dioxonan-3-yl)carbamoyl)-4-methoxypyridin-3-yl)oxy)methyl acetate] | – | – | – | – | > 70 | > 70 | < 70 | > 70
7 | CCCO[C@H]1COC[C@H](NC(=O)c2nccc(OC)c2OC(C)=O)C(=O)O[C@@H](C)[C@@H]1Cc1ccc(F)cc1 [Compound 20] | – | – | – | – | > 70 | > 70 | > 70 | > 70
8 | COc1ccnc(C(=O)N[C@H]2COC[C@H](Oc3ccc(C)cc3)[C@@H](Cc3ccc(F)cc3)[C@H](C)OC2=O)c1O [Compound 23] | > 70 | < 70 | > 70 | < 70 | – | – | – | –
9 | COc1ccnc(C(=O)N[C@H]2COC[C@H](OCC3CC3)[C@@H](Cc3ccc(F)cc3)[C@H](C)OC2=O)c1O [Compound 24] | > 70 | > 70 | > 70 | > 70 | – | – | – | –
10 | COc1ccnc(C(=O)N[C@H]2COC[C@H](OC(=O)C3CC3)[C@@H](Cc3ccc(F)cc3)[C@H](C)OC2=O)c1O [Compound 25] | > 70 | > 70 | > 70 | > 70 | – | – | – | –
11 | CCOCC(=O)OCOc1c(OC)ccnc1C(=O)N[C@H]1COC[C@H](OCOCc2ccccc2)[C@@H](Cc2ccccc2)[C@H](C)OC1=O [Compound 26] | > 70 | > 70 | > 70 | > 70 | – | – | – | –
12 | COc1ccnc(C(=O)N[C@H]2COC[C@H](OCC3CC3)[C@@H](Cc3ccc(F)cc3)[C@H](C)OC2=O)c1OC(C)=O [Compound 28] | – | – | – | – | > 70 | > 70 | > 70 | > 70
13 | COc1ccnc(C(=O)N[C@H]2COC[C@H](OCc3ccccc3)[C@@H](Cc3ccc(F)cc3)[C@H](C)OC2=O)c1OCOC(C)=O [Compound 30] | – | – | – | – | > 70 | > 70 | > 70 | > 70
14 | COc1ccnc(C(=O)N[C@H]2COC[C@H](OC(=O)C3CC3)[C@@H](CCC(C)C)[C@H](C)OC2=O)c1O [Compound 36] | < 70 | < 70 | < 70 | > 70 | – | – | – | –
15 | CCCC[C@H]1[C@H](C)OC(=O)[C@@H](NC(=O)c2nccc(OC)c2O)COC[C@@H]1OCc1ccccc1 [Compound 37] | > 70 | > 70 | > 70 | > 70 | – | – | – | –
16 | COc1ccnc(C(=O)N[C@H]2COC[C@H](OCc3ccccc3)[C@@H](Cc3ccc(F)cc3)[C@H](C)OC2=O)c1O [Compound 38] | > 70 | > 70 | > 70 | > 70 | – | – | – | –
17 | CCCC[C@H]1[C@H](C)OC(=O)[C@@H](NC(=O)c2nccc(OC)c2OCOC(C)=O)COC[C@@H]1OCc1ccccc1 [Compound 40] | – | – | – | – | > 70 | > 70 | > 70 | > 70
18 | CCCC[C@H]1[C@H](C)OC(=O)[C@@H](NC(=O)c2nccc(OC)c2OCOC(C)=O)COC[C@@H]1OC(=O)C(C)C [Compound 43] | – | – | – | – | > 70 | > 70 | < 70 | > 70
19 | CCCC[C@H]1[C@H](C)OC(=O)[C@@H](NC(=O)c2nccc(OC)c2OCOC(C)=O)COC[C@@H]1Oc1ccccc1 [Compound 44] | – | – | – | – | > 70 | > 70 | > 70 | > 70
20 | CCCC[C@H]1[C@H](C)OC(=O)[C@@H](NC(=O)c2nccc(OC)c2O)COC[C@@H]1Oc1ccccc1 [Compound 45] | > 70 | < 70 | > 70 | < 70 | – | – | – | –
21 | COc1ccnc(C(=O)N[C@H]2COC[C@H](Oc3ccccc3)[C@@H](CCC(C)C)[C@H](C)OC2=O)c1OC(C)=O [Compound 47] | – | – | – | – | > 70 | < 70 | > 70 | > 70
22 | CCCC[C@H]1[C@H](C)OC(=O)[C@@H](NC(=O)c2nccc(OC)c2OCOC(C)=O)COC[C@@H]1OCCCC(F)(F)F [Compound 48] | – | – | – | – | > 70 | > 70 | > 70 | > 70
23 | CCCC[C@H]1[C@H](C)OC(=O)[C@@H](NC(=O)c2nccc(OC)c2O)COC[C@@H]1OC(=O)C(C)C [Compound 58] | > 70 | < 70 | < 70 | > 70 | – | – | – | –
24 | COc1ccnc(C(=O)N[C@H]2COC[C@H](OC(=O)C3CC3)[C@@H](Cc3ccc(F)cc3)[C@H](C)OC2=O)c1OCOC(C)=O [Compound 59] | – | – | – | – | > 70 | > 70 | > 70 | > 70
